{"source": "patent US20160303264A1", "about": "“LIPOSOMES USEFUL FOR NON-INVASIVE IMAGING AND DRUG DELIVERY” (MERRIMACK PHARMACEUTICALS, INC., priority 2013, published 2016)", "origin": "cited, not measured here", "conditions": "human studies", "data": [{"smiles": "CN=C([S-])N/N=C(C)/C(C)=N/NC([S-])=NC.[64Cu+2]", "note": "[^64Cu-ATSM]", "values": [{"measurement": "adverse events or clinically detectable pharmacologic effects", "result": "No adverse events or clinically detectable pharmacologic effects"}, {"measurement": "changes in vital signs or laboratory test results after injection", "result": "no clinically significant changes"}]}]}
